Values quoted from earlier work, collected in patent US10537636B2, “Treatment of cancer with therapeutic monoclonal antibody specific for a tumor associated antigen and an immune adjuvant” (Oncoquest, Inc., priority 2017, dated 2020).

System: advanced ovarian cancer
Settings: mono-immunotherapy following front-line chemotherapy

Substance: oregovomab
- clinical outcome: failed to improves clinical outcome
